Biological target: DNA dC->dU-editing enzyme APOBEC-3G (Homo sapiens, UniProt Q9HC16)
Assay: inhibition of APOBEC3G ssDNA deamination – biochemical, fluorescence, single-stranded DNA substrate, SAR follow-up (AID 602136)
Conditions: 25 °C

DNA dC->dU-editing enzyme APOBEC-3G, sequence (Q9HC16 whole entry): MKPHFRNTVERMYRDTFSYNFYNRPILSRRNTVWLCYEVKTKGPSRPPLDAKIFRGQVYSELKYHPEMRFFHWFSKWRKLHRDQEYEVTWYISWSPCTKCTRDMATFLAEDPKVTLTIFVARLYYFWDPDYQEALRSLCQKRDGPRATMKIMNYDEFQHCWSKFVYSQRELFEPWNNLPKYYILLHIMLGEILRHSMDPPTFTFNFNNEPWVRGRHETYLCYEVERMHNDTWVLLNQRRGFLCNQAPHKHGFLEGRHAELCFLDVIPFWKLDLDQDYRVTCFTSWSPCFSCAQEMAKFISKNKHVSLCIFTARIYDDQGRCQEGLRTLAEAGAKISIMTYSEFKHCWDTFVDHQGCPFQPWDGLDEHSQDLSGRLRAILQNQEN

| Structure (SMILES) | IC50 [µM] |
| --- | --- |
| CCN1C(SCC(=O)NCc2ccco2)=NNC1=C1C=CC=CC1=O | > 99 |
| CC1(C)Oc2ccc3ccc(=O)oc3c2C(CN=O)=C1Cl [9-chloro-2-keto-8,8-dimethyl-pyrano[2,3-f]chromene-10-carbaldehyde oxime] | > 99 |
